Results from patent US20240239752A1, “BICYCLIC HETEROAROMATIC INHIBITORS OF KLK5” (BioCryst Pharmaceuticals, Inc., priority 2021, published 2024).

The compounds below were run against T1, recombinant human KLK5 (Homo sapiens, UniProt Q9Y337) (assay: Kallikrein (KLK) 5 enzymatic assay (Boc-VPR-AMC fluorogenic substrate)). Conditions: recombinant human KLK5 0.1 μg/well, Boc-VPR-AMC 100 μM, pH 7.5, room temperature, 1% DMSO; tested a minimum of three times.
T1 construct: purchased Novoprotein or R&D Systems C415 or 1108-SE
T1 sequence (Q9Y337 23-293): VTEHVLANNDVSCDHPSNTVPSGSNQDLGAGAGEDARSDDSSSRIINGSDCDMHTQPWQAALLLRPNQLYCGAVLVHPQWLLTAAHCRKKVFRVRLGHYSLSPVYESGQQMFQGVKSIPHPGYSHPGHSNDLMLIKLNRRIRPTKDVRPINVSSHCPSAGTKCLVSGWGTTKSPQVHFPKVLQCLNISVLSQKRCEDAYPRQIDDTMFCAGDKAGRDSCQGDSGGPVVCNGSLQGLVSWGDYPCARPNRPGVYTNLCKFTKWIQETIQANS
Type: biochemical
Procedure, shortened: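 Fluorogenic rate assay at pH 7.5 (0.1 M NaH2PO4, 1% DMSO, room temperature), run at least three times per compound. Compound was premixed with 0.1 μg/well recombinant human KLK5 before adding 100 μM Boc-VPR-AMC; AMC release was read at ex 380/em 460 nm, and IC50 derived from inhibition of rate vs DMSO control.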

IC50 [nM] | SMILES
< 1000 | COCCC1(CCOC)CC(Oc2ccccc2CC(=O)O)c2cc(-c3ccc4ccnc(N)c4c3)ccc21 (stereo not drawn) [Compound 446f, 2-(2-((6-(1-aminoisoquinolin-7-yl)-3,3-bis(2-methoxyethyl)-2,3-dihydro-1H-inden-1-yl)oxy)phenyl)acetic acid]
< 1000 | COCCC1(CCOC)CC(Oc2ccccc2CC(=O)O)c2cc(-c3cccc4c(N)nccc34)ccc21 (stereo not drawn) [Compound 447b, 2-(2-((6-(1-aminoisoquinolin-5-yl)-3,3-bis(2-methoxyethyl)-2,3-dihydro-1H-inden-1-yl)oxy)phenyl)acetic acid]
< 1000 | Cc1cccc(OC2CC3(CCN(S(C)(=O)=O)CC3)c3ccc(-c4ccc5ccnc(N)c5c4)cc32)c1CC(=O)O (stereo not drawn) [Compound 448c, 2-(2-((5-(1-aminoisoquinolin-7-yl)-1′-(methylsulfonyl)-2,3-dihydrospiro[indene-1,4′-piperidin]-3-yl)oxy)-6-methylphenyl)acetic acid]
< 1000 | Cc1cccc(OC2CC3(CCN(S(C)(=O)=O)CC3)c3ccc(-c4cccc5c(N)nccc45)cc32)c1CC(=O)O (stereo not drawn) [Compound 449b, 2-(2-((5-(1-aminoisoquinolin-5-yl)-1′-(methylsulfonyl)-2,3-dihydrospiro[indene-1,4′-piperidin]-3-yl)oxy)-6-methylphenyl)acetic acid]
< 1000 | COC(=O)N1CCC2(CC1)CC(Oc1cc(OC)ccc1CC(=O)O)c1cc(-c3ccc4ccnc(N)c4c3)ccc12 (stereo not drawn) [Compound 452c, 2-(2-((5-(1-aminoisoquinolin-7-yl)-1′-(methoxycarbonyl)-2,3-dihydrospiro[indene-1,4′-piperidin]-3-yl)oxy)-4-methoxyphenyl)acetic acid]
< 1000 | COC(=O)N1CCC2(CC1)CC(Oc1cc(OC)ccc1CC(=O)O)c1cc(-c3cccc4c(N)nccc34)ccc12 (stereo not drawn) [Compound 453b, 2-(2-((5-(1-aminoisoquinolin-5-yl)-1′-(methoxycarbonyl)-2,3-dihydrospiro[indene-1,4′-piperidin]-3-yl)oxy)-4-methoxyphenyl)acetic acid]
1000 to 10000 | COC(=O)N1CCC2(CC1)CC(Oc1c(C#N)cccc1CC(=O)O)c1cc(-c3ccc4ccnc(N)c4c3)ccc12 (stereo not drawn) [Compound 454c, 2-(2-((5-(1-aminoisoquinolin-7-yl)-1′-(methoxycarbonyl)-2,3-dihydrospiro[indene-1,4′-piperidin]-3-yl)oxy)-3-cyanophenyl)acetic acid]
1000 to 10000 | COC(=O)N1CCC2(CC1)CC(Oc1c(C#N)cccc1CC(=O)O)c1cc(-c3cccc4c(N)nccc34)ccc12 (stereo not drawn) [Compound 455b, 2-(2-((5-(1-aminoisoquinolin-5-yl)-1′-(methoxycarbonyl)-2,3-dihydrospiro[indene-1,4′-piperidin]-3-yl)oxy)-3-cyanophenyl)acetic acid]
< 1000 | CC(C)N1CCN(C2CC(Oc3ccccc3CC(=O)O)c3cc(-c4cccc5c(N)nccc45)ccc32)CC1 (stereo not drawn) [Compound 456g, 2-(2-((6-(1-aminoisoquinolin-5-yl)-3-(4-isopropylpiperazin-1-yl)-2,3-dihydro-1H-inden-1-yl)oxy)phenyl)acetic acid]
< 1000 | CC(C)N1CCN(C2CC(Oc3ccccc3CC(=O)O)c3cc(-c4ccc5ccnc(N)c5c4)ccc32)CC1 (stereo not drawn) [Compound 457b]
< 1000 | Nc1nccc2c(-c3ccc4c(c3)c(COc3ccccc3CC(=O)O)cn4C3CCOC3)cccc12 (stereo not drawn) [Compound 458f, 2-(2-((5-(1-aminoisoquinolin-5-yl)-1-(tetrahydrofuran-3-yl)-1H-indol-3-yl)methoxy)phenyl)acetic acid]
< 1000 | Nc1nccc2c(-c3ccc4c(c3)[C@H](Oc3ccccc3CC(=O)O)C[C@H]4N3CCCCC3)cccc12 [Compound 459f, (+)-trans 2-(2-(((1R,3R)-6-(1-aminoisoquinolin-5-yl)-3-(piperidin-1-yl)-2,3-dihydro-1H-inden-1-yl)oxy)phenyl)acetic acid]
1000 to 10000 | Nc1nccc2c(-c3ccc4c(c3)[C@@H](Oc3ccccc3CC(=O)O)C[C@@H]4N3CCCCC3)cccc12 [Compound 459g, (−)-trans 2-(2-(((1S,3S)-6-(1-aminoisoquinolin-5-yl)-3-(piperidin-1-yl)-2,3-dihydro-1H-inden-1-yl)oxy)phenyl)acetic acid]

SMILES | IC50 [nM]
Cc1cccc(OC2CC3(CCN(C(=O)OCC(C)C)CC3)c3ccc(-c4ccc5ccnc(N)c5c4)cc32)c1CC(=O)O (stereo not drawn) [Compound 450c, 2-(2-((5-(1-aminoisoquinolin-7-yl)-1′-(isobutoxycarbonyl)-2,3-dihydrospiro[indene-1,4′-piperidin]-3-yl)oxy)-6-methylphenyl)acetic acid] | < 1000
Cc1cccc(OC2CC3(CCN(C(=O)OCC(C)C)CC3)c3ccc(-c4cccc5c(N)nccc45)cc32)c1CC(=O)O (stereo not drawn) [Compound 451b, 2-(2-((5-(1-aminoisoquinolin-5-yl)-1′-(isobutoxycarbonyl)-2,3-dihydrospiro[indene-1,4′-piperidin]-3-yl)oxy)-6-methylphenyl)acetic acid] | < 1000
